Data taken from patent US10265330B2, “Pharmaceutical compositions and treatment of mastitis” (BAYER ANIMAL HEALTH GMBH, priority 2012, dated 2019).

How the values were obtained:
S. aureus = format: cell-based, Staphylococcus aureus; details: single compound
Excerpt: (§1) The mutant prevention concentration (MPC) is the drug concentration that blocks the growth of the least susceptible, single-step mutant. Above this concentration, cell growth requires the presence of two or more resistance mutations. Since two concurrent mutations are expected to arise rarely, resistance is expected to develop rarely when drug concentrations are kept above the MPC. For further information regarding the MPC, it is by way of example referred to Drlica, K. (2003). The mutant selection window and antimicrobial resistance. Journal of Antimicrobial Chemotherapy, 52(1), 11-17; and to Blondeau, J. M. (2009). New concepts in antimicrobial susceptibility testing: the mutant prevention concentration and mutant selection window approach. Veterinary dermatology, 20(5-6), 383-396.

[1] = system: Staphylococcus aureus Newbould 305 (ATCC 29740); test: S. aureus mouse mastitis model (MMM), intramammary treatment; format: in vivo, lactating CD-1 mice; details: for Median CFU log10: glands harvested 18 h after inoculation
Description: The mice were treated intramammarily (IMAM) with enrofloxacin, fosfomycin and a combination of enrofloxacin and fosfomycin as detailed in Table 1 four hours after inoculation. Each treatment group contained at least 3 mice (6 glands). Fourteen hours later (18 hours after inoculation) mice were sacrificed, mammary glands were harvested and the CFU content evaluated by plating 10-fold serial dilutions of mammary gland homogenates. The CFU content was expressed as log10 count. The detection limit was 200 CFU/g of gland. Glands with less than 200 CFU/g were regarded as cleared of S. aureus (see Table 1).
For each treatment group median log10 reductions of CFU were determined by subtracting the median log10 CFU value of the respective group from the median log10 CFU value of the untreated control group.

[2] = system: Streptococus uberis, Staphylococus aureus, Escherichia coli, other streptococci and mixed infections; test: Field study, dairy cattle with clinical mastitis; format: in vivo; details: 400 mg cefazolin and/or 1000 mg fosfomycin per quarter, paraffin based ointment, three times at 24 h interval; milk samples 1-3 weeks after treatment
Description: In a first field-study, dairy cattle with clinical mastitis were treated under field conditions with either cefazolin, fosfomycin or a combination of both compounds. […] The diseased quarters were treated with this ointment three consecutive times with an interval of 24 hours between each application. When a milk sample was taken from the diseased udder quarters before the treatment for the diagnosis of mastitis infection, pathogenic bacteria typical of clinical mastitis were isolated, i.e. Streptococus uberis, Staphylococus aureus, Escherichia coli, other streptococci and mixed infections of the aforementioned species. […] Diseased udder quarters were considered cured when the clinical symptoms of mastitis had disappeared within one week without requiring a new antibiotic treatment and when the causative pathogenic bacterium, found in the diagnostic milk sample shortly before treatment, could not be isolated from any of the milk samples taken from one to three weeks following treatment. The cure rate of mastitis infection was higher in the udder quarters treated with the combination ointment (cefazolin together with fosfomycin), i.e. 17/38 (45%), than in the quarters treated with the ointment containing cefazolin alone ( 11/35, 31%) or fosfomycin alone ( 13/37, 35%).

Staphylococcus aureus = test: Field trial, dairy cattle with subclinical mastitis; format: in vivo; details: 400 mg cefazolin and/or 1000 mg fosfomycin per quarter, six times at 12 h interval; for Cure rate of S. aureus infection / Cure rate of S. aureus infection (cured quarters/treated quarters): paraffin based ointment, milk samples 3 and 4 weeks after treatment
Description: In another field trial, dairy cattle with subclinical mastitis, i.e. persistent, chronic udder infections caused by Staphylococcus aureus, were treated with either cefazolin, fosfomycin or a combination of both compounds. […] The affected quarters were treated with this ointment six consecutive times with an interval of 12 hours between each application. […] Following treatment, the level of udder inflammation, as measured by the Somatic Cell Count in the milk samples post treatment, was lower in the udders treated with the cefazolin-fosfomycin combination (46% of milk samples with a SCC lower than 300,000 cells/mL) than in udders treated with cefazolin alone (30% of milk samples with a SCC lower than 300,000 cells/mL) or with fosfomycin alone (24% of milk samples with a SCC lower than 300,000 cells/mL).

E. coli = format: cell-based, Escherichia coli; details: single compound
Excerpt: as §1

[3] = dose 100 μg IMAM, listed as enrofloxacin

| Compound | MPC against S. aureus (S. aureus) [µg/mL] | Cure rate of mastitis infection [2] [%] | Cure rate of mastitis infection (cured quarters/treated quarters) [2] | Cleared glands % (less than 200 CFU/g) ([1]; dose 100 μg IMAM) | log10 CFU reduction (median, vs untreated control) ([1]; dose 100 μg IMAM) [log10] | Cure rate of S. aureus infection (Staphylococcus aureus) [%] | Cure rate of S. aureus infection (cured quarters/treated quarters) (Staphylococcus aureus) | Cured quarters with SCC returned to normal (lower than 300,000 cells per mL) (Staphylococcus aureus) [%] | Cured quarters with SCC returned to normal (lower than 300,000 cells per mL), quarters/treated quarters (Staphylococcus aureus) | Milk samples post treatment with a SCC lower than 300,000 cells/mL (Staphylococcus aureus) [%] | MPC against E. coli (E. coli) [µg/mL] | other results |
| --- | --- | --- | --- | --- | --- | --- | --- | --- | --- | --- | --- | --- |
| CC[C@@H]1CCN[C@H](C(=O)N[C@@H]([C@H]2O[C@H](SC)[C@H](O)[C@@H](O)[C@H]2O)[C@H](C)Cl)C1 [pirlimycin] | 2 |  |  |  |  |  |  |  |  |  |  | Cleared glands % (less than 200 CFU/g) ([1]; dose 10 microgram IMAM): does not eliminate the infection; log10 CFU reduction (median, vs untreated control) ([1]; dose 10 microgram IMAM): 3.3 log10 |
| C[C@@H]1O[C@@H]1P(=O)(O)O [Fosfomycin, [(2R,3S)-3-methyloxiran-2-yl]phosphonic acid] | 1500 | 35 | 13/37 | does not eliminate the infection | 2.0 | 57 | 27/47 | 19 | 9/47 | 24 | 200 | Cleared glands % (less than 200 CFU/g) ([1]; dose 500 μg IMAM): 0%; log10 CFU reduction (median, vs untreated control) ([1]; dose 500 μg IMAM): 3.3 log10; Median CFU log10 ([1]; dose 500 μg IMAM 4 h after inoculation): 5.0 CFU log10; Cleared glands % (less than 200 CFU/g) ([1]; dose 500 μg IMAM, listed as fosfomycin): does not eliminate the infection; Cleared glands % (less than 200 CFU/g) ([1]; dose 1000 μg IMAM): 0%; log10 CFU reduction (median, vs untreated control) ([1]; dose 1000 μg IMAM): 5.1 log10; Median CFU log10 ([1]; dose 1000 μg IMAM 4 h after inoculation): 3.2 CFU log10; Cleared glands % (less than 200 CFU/g) ([1]; dose 1000 μg IMAM, listed as fosfomycin): does not eliminate the infection |
| Cc1nnc(SCC2=C(C(=O)O)N3C(=O)[C@@H](NC(=O)Cn4cnnn4)[C@H]3SC2)s1 [cefazolin] | 1.25 | 31 | 11/35 | does not eliminate the infection | 5.1 | 46 | 20/43 | 23 | 10/43 | 30 | 64 | Cleared glands % (less than 200 CFU/g) ([1]; dose 50 microgram IMAM): does not eliminate the infection; log10 CFU reduction (median, vs untreated control) ([1]; dose 50 microgram IMAM): 4.5 log10 |
| CCN1CCN(c2cc3c(cc2F)c(=O)c(C(=O)O)cn3C2CC2)CC1 [Enrofloxacin, enrofloxacin] | 3 |  |  | 0% | 1.41 |  |  |  |  |  |  | Median CFU log10 ([1]; dose 100 μg IMAM 4 h after inoculation): 6.8 CFU log10; Cleared glands % (less than 200 CFU/g) [1, 3]: does not eliminate the infection; log10 CFU reduction (median, vs untreated control) [1, 3]: 1.4 log10 |
| CC1(C)S[C@@H]2[C@H](NC(=O)[C@H](N)c3ccc(O)cc3)C(=O)N2[C@H]1C(=O)O [amoxicillin] |  |  |  | does not eliminate the infection | 1.6 |  |  |  |  |  |  |  |
